# Data: PMC12081876, “Identification of PTGR2 inhibitors as a new therapeutic strategy for diabetes and obesity” (EMBO Molecular Medicine, 2025)
# Several values for one entry are separate records, joined by “and”; a condition that tells them apart may be missing. Equal values may be shown once.
# Tests used:
# [1] = system: HFHSD-fed obese C57BL6/J mice; test: Diet-induced thermogenesis; type: in vivo, mouse; conditions: for interscapular area temperature, Average: Figure 2S left panel; for interscapular area temperature, Average / inguinal area temperature, Average / rectal temperatures, Average / inguinal area temperature / interscapular area temperature / rectal temperatures: in °C; for inguinal area temperature, Average: Figure 2S middle panel; for rectal temperatures, Average: Figure 2S right panel; for inguinal area temperature / interscapular area temperature / rectal temperatures: Figure 2S, individual mice
# Experimental: For the cold tolerance test, 24-week-old mice with matched average body weight from the two groups were placed individually on HFHSD in a 4 °C chamber. The rectal temperature of the mice was measured after 0, 1, 2, 3, 4, 5, 6, 12, and 18 h. For measuring diet-induced thermogenesis, 24-week-old mice were fasted overnight for 18 h. Then, we measured their rectal temperature at 0, 30, 60, 90, 120, 150, 180, and 240 min after HFHSD refeeding. The rectal and surface temperature were detected by thermal probes (Physitemp Therma TH-5, ThermoWorks, Alpine and MicroTherma 2T, ThermoWorks, Alpine, respectively).
# [2] = system: murine PPARγ Ser273 phosphorylation; test: TNFα-induced PPARγ Ser273 phosphorylation in 3T3-L1 adipocytes; type: cell-based; conditions: cultured murine adipocytes
# Experimental: For cell-based assay, 3T3-L1 cells were induced differentiation one day after achieving 100% confluence with 0.5 mM IBMX, 1 µm dexamethasone and 10 μg/mL insulin in DMEM containing 10% FBS for 2 days and maintained differentiation in DMEM supplemented with 10 μg/mL insulin and 10% FBS for 4 days. The medium was changed every 2 days. […] Then TNFα was added to induce PPARγ phosphorylation in a concentration of 50 ng/ml for 15 min. Cells were harvested and lysed in RIPA buffer supplemented with 1X cOmplete™, EDTA-free Protease Inhibitor Cocktail (cat. no. 04693132001, Roche) and 1X PhosSTOP™ (cat. no. 4906845001, Roche).
# The protein concentrations of tissue lysates were measured by Bradford reagent (cat. no. BP500-0006, Bio-Rad). The protein samples were mixed with 6X sample buffer (0.3 M Tris-HCl, pH 6.8, 0.6 M DTT, 12% SDS, 0.6% Bromophenel blue and 60% glycerol) and heated at 70 °C for 5 min. 30 μg of each sample were separated by 10% SDS-PAGE gel and were transferred to PVDF membrane. The membrane was blocked by 3% BSA in Tris-buffered saline containing 0.1% Tween-20 for 1 h at room temperature and incubated with primary antibody at 4 °C overnight. […] Protein expression of phospho-PPARγ was analyzed using ImageJ software and normalized against PPARγ and GAPDH.
# [3] = Pharmacokinetic study in male ICR mice; type: in vivo, mouse; conditions: plasma
# Experimental: Male ICR mice weighing 25–30 g each were obtained from BioLASCO, Taiwan Co., Ltd., Ilan, Taiwan for pharmacokinetic study. Briefly, a single dose of BRRPT245 was given intravenously at 2 mg/kg or oral gavage at 10 mg/kg to the mice. Blood samples were taken at 0 (immediately before dosing), 2, 5 (iv only), 15 and 30 min and at 1, 2, 4, 6, 8, 16, and 24 h after administration. The T1/2 (half-life), Cl (clearance), Vss (steady-state volume of distribution), AUC (area under curve), Cmax (maximum plasma concentration), Tmax (time taken to reach Cmax), and F(bioavailability%) were calculated according to the published formula (Urso et al, [2002]).
# The HPLC system consisted of an Agilent 1200 series LC System with BinPump (Waldbronn, Germany) and an Agilent Eclipse XDB C8 (3.0 × 150 mm, 5 µm) interfaced to a Sciex API 4000 tandem mass spectrometer. Mobile phase consisted of 10 mM ammonium acetate containing 0.1% of formic acid (Solvent A) and acetonitrile (Solvent B). For determination of BPTPT0245, the following stepwise gradient system was used: 85% A (0–0.5 min), 85% A to 15% A (0.6–3.0 min), 5% A (3.1–5.0 min). Total running time was 5 min. The retention times of BPRPT0245 and BPR0L187 (internal standard) (IS) were 2.21 and 2.42 min, respectively. Data acquisition was via selected ion monitoring (SIM). The collision energy was +37 V for the analyte and +38.5 V for IS, respectively. The ions monitored for BPRPT0245 were m/z 447/189 and m/z 357/195, respectively. […] Total running time was 6 min. […] Data acquisition was via SIM.
# To prepare the BPRPT0245 plasma samples, 50 µL of the plasma sample mixed with 100 µL acetonitrile containing […] of BPR0L187. The mixture was vortexed for 30 s and then centrifuged at 15,000 rpm for 20 min in an Eppendorf Model 5417c centrifuge at room temperature. An aliquot (5 µL) of the mixture was then injected onto to LC-MS/MS.
smiles,measurement,setting,value
"CCCCCC(=O)/C=C/[C@H]1[C@H](O)CC(=O)[C@@H]1C/C=C\CCCC(=O)O [15-keto-PGE2, 15-keto-prostaglandin E2]","interscapular, inguinal and rectal temperatures after HFHSD feeding","[1]; 40 mg/kg/day ip, vs vehicle","higher interscapular, inguinal, and rectal temperatures after HFHSD feeding"
same,"interscapular area temperature, Average",[1]; period 0 min,36.7067
same,"interscapular area temperature, Average",[1]; period 30 min,37.7933
same,"interscapular area temperature, Average",[1]; period 60 min,37.6333
same,"interscapular area temperature, Average",[1]; period 120 min,37.5133
same,"interscapular area temperature, Average",[1]; period 180 min,37.3533
same,"interscapular area temperature, Average",[1]; period 240 min,37.1267
same,"inguinal area temperature, Average",[1]; period 0 min,35.1463
same,"inguinal area temperature, Average",[1]; period 30 min,36.4001
same,"inguinal area temperature, Average",[1]; period 60 min,36.234
same,"inguinal area temperature, Average",[1]; period 120 min,35.9052
same,"inguinal area temperature, Average",[1]; period 180 min,35.7573
same,"inguinal area temperature, Average",[1]; period 240 min,35.4703
same,"rectal temperatures, Average",[1]; period 0 min,36.6549
same,"rectal temperatures, Average",[1]; period 30 min,37.7723
same,"rectal temperatures, Average",[1]; period 60 min,37.6257
same,"rectal temperatures, Average",[1]; period 120 min,37.398
same,"rectal temperatures, Average",[1]; period 180 min,37.3676
same,"rectal temperatures, Average",[1]; period 240 min,37.1984
same,inguinal area temperature,[1]; period 0 min,35.4 and 35.2 and 34.79 and 34.8 and 34.56 and 35 and 35.185 and 35.735 and 36 and 34.735 and 35.25 and 35.645 and 34.88 and 34.815
same,interscapular area temperature,[1]; period 0 min,36.9 and 37.4 and 36.4 and 36.8 and 36.6 and 37.8 and 35.4 and 36.2 and 37
same,rectal temperatures,[1]; period 0 min,36.805 and 37.06 and 36.54 and 36.445
same,inguinal area temperature,[1]; period 30 min,36.955 and 36.815 and 36.705 and 36.42 and 36.0964 and 35.905 and 36.6 and 35.865 and 35.975 and 36.115 and 36.825 and 36.785 and 36.43 and 36.095 and 36.415
same,interscapular area temperature,[1]; period 30 min,38.1 and 38.2 and 37.6 and 37.2 and 37.5 and 37.7 and 37.9 and 37.8
same,rectal temperatures,[1]; period 30 min,38.255 and 38.275 and 37.755 and 37.72
same,inguinal area temperature,[1]; period 60 min,36.755 and 36.7 and 36.085 and 36.255 and 36.2 and 35.5 and 35.9 and 35.67 and 36.1 and 36.955 and 36.3 and 36.545 and 36.31 and 35.98
same,interscapular area temperature,[1]; period 60 min,38 and 38.3 and 37.8 and 37.5 and 37.7 and 37.4 and 37.6 and 37.2
same,rectal temperatures,[1]; period 60 min,38.085 and 37.94 and 37.88 and 37.79
same,inguinal area temperature,[1]; period 120 min,36.81 and 36.5 and 36.135 and 35.755 and 36.1679 and 35.38 and 35.6 and 35.29 and 35.4 and 36.16 and 36.2 and 35.9 and 36.075 and 35.355 and 35.85
same,interscapular area temperature,[1]; period 120 min,37.7 and 38.2 and 37.9 and 37.6 and 37.2 and 37.1 and 37.5 and 37.4 and 37.3
same,rectal temperatures,[1]; period 120 min,37.95 and 37.965 and 37.615
same,inguinal area temperature,[1]; period 180 min,36.105 and 36.3 and 36.27 and 35.585 and 35.8 and 35.3 and 35.4 and 35.7 and 36.1 and 35.765 and 35.535
same,interscapular area temperature,[1]; period 180 min,37.5 and 38.4 and 37.6 and 37.4 and 36.5 and 37.2 and 37.1 and 36.9 and 37 and 37.8
same,rectal temperatures,[1]; period 180 min,37.665 and 37.81 and 37.52
same,inguinal area temperature,[1]; period 240 min,35.995 and 36.065 and 35.575 and 35.82 and 35.715 and 35.26 and 35.2 and 35.6 and 36.2 and 35.1 and 35.12 and 34.905
same,interscapular area temperature,[1]; period 240 min,37.1 and 37.5 and 37 and 37.2 and 37.3 and 36.2 and 36.8 and 37.4 and 36.6
same,rectal temperatures,[1]; period 240 min,37.705 and 37.57 and 37.21
same,phosphorylation of PPARγ Ser273,[2],dose-dependently reduced phosphorylation of Ser273
Cc1[nH]c2nc(C(C)N3CCN(c4ccccc4)CC3)nn2c(=O)c1Cc1ccc(F)cc1 (centres unmarked) [BPRPT0245],AUC(0-inf),"[3]; Mouse IV, dose 2 mg/kg",480 ng·h/mL
same,clearance,"[3]; Mouse IV, dose 2 mg/kg",79.5 mL/min/kg
same,half-life,"[3]; Mouse IV, dose 2 mg/kg",2 h
same,Vd,"[3]; Mouse IV, dose 2 mg/kg, read-out: Vss",5 L/kg
same,AUC(0-inf),"[3]; Mouse PO, dose 10 mg/kg",725 ng·h/mL
same,Cmax,"[3]; Mouse PO, dose 10 mg/kg",398 ng/mL
same,Tmax,"[3]; Mouse PO, dose 10 mg/kg",0.4 h
same,half-life,"[3]; Mouse PO, dose 10 mg/kg",2.5 h
same,bioavailability,"[3]; Mouse PO, dose 10 mg/kg, read-out: F(%) bioavailability",30.2%
